Patent US9399639B2, “Substituted azaindole compounds, salts, pharmaceutical compositions thereof and methods of use” (Calitor Sciences, LLC, priority 2012, dated 2016)

Experiments:
[1] = Compound stability in human liver microsomes; type: in vitro ADME; conditions: for CLint scaled at 1 μM: pH 7.4, in vivo CLint extrapolated; for half-life at 1 μM: pH 7.4, read-out: Human T1/2; for Human T1/2: 1 μM
Protocol: (§1) Human or rat liver microsomes incubations were conducted in duplicate in polypropylene tubes. […] Compounds were dissolved in DMSO and diluted with PBS such that the final concentration of DMSO was 0.05%. The enzymatic reactions were commenced with the addition of protein after a 3 min preincubation and incubated in a water bath open to the air at 37° C. Reactions were terminated at various time points (0, 5, 10, 15, 30, 60 min) by adding equal volume of ice-cold acetonitrile. The samples were stored at −80° C. until LC/MS/MS assays.
(§2) The concentrations of compounds in the incubation mixtures of human (or rat) liver microsomes were determined by a LC/MS/MS method. The ranges of the linearity in the concentration range were determined for each tested compounds.
(§3) A parallel incubation was performed using denatured microsomes as the negative control, and reactions were terminated at various time points (for example, 0, 15, 60 min) after incubation at 37° C.
(§4) Dextromethorphan (70 μM) was selected as the positive control, and reactions were terminated at various time points (0, 5, 10, 15, 30, 60 min) after incubation at 37° C. Both positive and negative control samples were included in each assay to ensure the integrity of the microsomal incubation system.
(§5) Alternatively, the stability of some of the compounds disclosed herein in human (or rat) liver microsomes were also conducted in the following protocol. The incubations were conducted in duplicate in polypropylene tubes. […] Compounds were dissolved in DMSO and diluted with K-buffer such that the final concentration of DMSO was 0.2%. The enzymatic reactions were commenced with the addition of 15 μL of NADPH (final concentration: 2 mM) after 10 min preincubation and incubated in a 37° C. incubator. Reactions were terminated at various time points (0, 15, 30, 60 min) by adding 135 μL acetonitrile (contain IS). Protein is removed by centrifugation with 4,000 rpm, 10 min.
(§6) In the above protocol, ketanserin (1 μM) was selected as the positive control, and reactions were terminated at various time points (0, 15, 30, 60 min) after incubation at 37° C. The positive control sample was included in each assay to ensure the integrity of the microsomal incubation system.
(§7) The concentrations of compounds in liver microsome incubations were plotted as a percentage of the relevant zero time point control for each reaction. The in vivo CLint were extrapolated (ref: Naritomi et al., Prediction of human hepatic clearance from in vivo animal experiments and in vitro metabolic studies with liver microsomes from animals and humans, Drug Metab. Dispos., 2001, 29: 1316-1324.) […]

[2] = Compound stability in rat liver microsomes; type: in vitro ADME; conditions: for CLint scaled at 1 μM: pH 7.4, in vivo CLint extrapolated; for half-life at 1 μM: pH 7.4, read-out: Rat T1/2; for Rat T1/2: 1 μM
Protocol: as §1, §2, §3, §4, §5, §6, §7

[3] = Stability in rat plasma; type: in vitro ADME; conditions: read-out: Rat T1/2
Protocol: (§8) Similarly, selected compounds of the invention were also assessed for their stability in human and rat plasma, and the results are listed in Table 3.

[4] = Stability in human plasma; type: in vitro ADME; conditions: for half-life at 2 μM: read-out: Human T1/2
Protocol: as §8

[5] = tested on: Colo-205 Tumor Xenograft; assay: Colo-205 tumor xenograft model, tumor growth inhibition; type: in vivo, athymic nude mice; conditions: Colo-205 xenograft, p.o., 15 days
Protocol: The efficacy of compounds disclosed herein is evaluated in a standard murine model of tumorigenesis. Human tumor cells (i.e., Colo-205 Tumor Xenograft models) are expended in culture, harvested, and injected subcutaneously onto the rear flank of 6-7 week old female athymic nude mice (BALB/cA nu/nu, Shanghai SLAC Laboratory Animal, Co.) (n=10 for vehicle group, n=8 for each dosing group). When tumor reaches a volume of 100-250 mm^3, animals are randomly divided into vehicle control (for example, 5% PEG400+5% Solutol HS 15 in water or 5% EtOH+5% CremophorEL+1% HCl (11.7%), pH 2.2 in water) and compound groups. Subsequent administration of compound by oral gavage (for example, 6-60 mpk/dose, dissolved in 5% PEG400+5% Solutol HS 15 in water or 5% EtOH+5% CremophorEL+1% HCl (11.7%), pH 2.2 in water) begins anywhere from day 0 to day 15 post tumor cell challenge and generally continues with once a day for the duration of the experiment.
Progression of tumor growth is assessed by tumor volumes and recorded as a function of time. The long (L) and short (W) axes of the subcutaneous tumors are measured with calipers twice weekly, and the tumor volume (TV) calculated as (L×W^2)/2). TGI is calculated from the difference between the median tumor volumes of vehicle-treated and drug-treated mice, expressed as a percentage of the median tumor volume of the vehicle-treated control group, by the following relation:
Initial statistical analysis is done by repeated measures analysis of variance (RMANOVA), Followed by Scheffe post-hoc testing for multiple comparisons. Vehicle alone (2% HPMC+1% Tween-80, or the like) is the negative control.
The compouds described herein were also administrated orally (p.o.) once a day (QD) or (BID) for 15 days in Colo-205 xenograft animal model. At doses of 20 mg/kg, the compouds produced statistically significant inhibition of growth of certain tumors grown subcutaneously in athymic nude mice.

SMILES: CCCS(=O)(=O)N(C(=O)c1ccccc1)c1ccc(F)c(C(=O)c2c[nH]c3ncc(-c4ccc(Cl)cc4)cc23)c1F [Ex. 2, N-(3-(5-(4-chlorophenyl)-1H-pyrrolo[2,3-b]pyridine-3-carbonyl)-2,4-difluorophenyl)-N-(propylsulfonyl)benzamide]
- CLint scaled at 1 μM [1]: 29.2 mL/min/kg
- half-life at 1 μM [1]: 59.5 min
- CLint scaled at 1 μM [2]: 193 mL/min/kg
- half-life at 1 μM [2]: 12.8 min

SMILES: CCCS(=O)(=O)Nc1ccc(F)c(C(=O)c2cn(COC(=O)[C@@H](N)C(C)CC)c3ncc(-c4ccc(Cl)cc4)cc23)c1F.Cl (stereo partly drawn) [Ex. 22, (2S)-(5-(4-chlorophenyl)-3-(2,6-difluoro-3-(propylsulfonamido)benzoyl)-1H-pyrrolo[2,3-b]pyridin-1-yl)methyl-2-amino-3-methylpentanoate hydrochloride]
- CLint scaled at 1 μM [1]: 23.9 mL/min/kg
- half-life at 1 μM [1]: 72.8 min
- half-life at 2 μM [3]: 15.2 min
- CLint scaled at 1 μM [2]: 535 mL/min/kg
- half-life at 1 μM [2]: 4.6 min
- half-life at 2 μM [4]: 6.81 min

SMILES: CCCS(=O)(=O)Nc1ccc(F)c(C(=O)c2cn(COC(=O)C(N)C(C)C)c3ncc(-c4ccc(Cl)cc4)cc23)c1F.Cl (centres unmarked) [Ex. 18, (5-(4-chlorophenyl)-3-(2,6-difluoro-3-(propylsulfonamido)benzoyl)-1H-pyrrolo[2,3-b]pyridin-1-yl)methyl 2-amino-3-methylbutanoate hydrochloride]
- CLint scaled at 1 μM [1]: 5.52 mL/min/kg
- half-life at 1 μM [1]: 78.8 min
- half-life at 2 μM [3]: 9.61 min
- half-life at 2 μM [4]: 6.08 min

SMILES: CCCS(=O)(=O)Nc1ccc(F)c(C(=O)c2cn(C(C)OP(=O)([O-])[O-])c3ncc(-c4ccc(Cl)cc4)cc23)c1F.[Na+].[Na+] (centres unmarked) [Ex. 32, sodium 1-(5-(4-chlorophenyl)-3-(2,6-difluoro-3-(propylsulfonamido)benzoyl)-1H-pyrrolo[2,3-b]pyridin-1-yl)ethyl phosphate]
- Human T1/2 [1]: ∞
- Rat T1/2 [2]: ∞
- TGI % (on the last day of dosing) ([5]; 6 mg/kg/qd): 29%
- TGI % (on the last day of dosing) ([5]; 20 mg/kg/bid): 102%
- TGI % (on the last day of dosing) ([5]; 20 mg/kg/qd): 68%
- TGI % (on the last day of dosing) ([5]; 60 mg/kg/qd): 110%

SMILES: CCCS(=O)(=O)N(C(=O)OCC)c1ccc(F)c(C(=O)c2c[nH]c3ncc(-c4ccc(Cl)cc4)cc23)c1F [Ex. 1, ethyl 3-(5-(4-chlorophenyl)-1H-pyrrolo[2,3-b]pyridine-3-carbonyl)-2,4-difluorophenyl(propylsulfonyl)carbamate]
- CLint scaled at 1 μM [1]: 60.2 mL/min/kg
- half-life at 1 μM [1]: 28.9 min
- CLint scaled at 1 μM [2]: 142 mL/min/kg
- half-life at 1 μM [2]: 17.5 min

SMILES: CCCS(=O)(=O)Nc1ccc(F)c(C(=O)c2cn(COC(=O)[C@@H](N)CC(C)C)c3ncc(-c4ccc(Cl)cc4)cc23)c1F.Cl [Ex. 23, (S)-(5-(4-chlorophenyl)-3-(2,6-difluoro-3-(propylsulfonamido)benzoyl)-1H-pyrrolo[2,3-b]pyridin-1-yl)methyl 2-amino-4-methylpentanoate hydrochloride]
- CLint scaled at 1 μM [1]: 15.4 mL/min/kg
- half-life at 1 μM [1]: 113 min
- half-life at 2 μM [3]: 3.42 min
- CLint scaled at 1 μM [2]: 429 mL/min/kg
- half-life at 1 μM [2]: 5.8 min
- half-life at 2 μM [4]: 3.06 min

SMILES: CCCS(=O)(=O)Nc1ccc(F)c(C(=O)c2cn(COP(=O)([O-])[O-])c3ncc(-c4ccc(Cl)cc4)cc23)c1F.[Na+].[Na+] [Ex. 25, sodium (5-(4-chlorophenyl)-3-(2,6-difluoro-3-(propylsulfonamido)benzoyl)-1H-pyrrolo[2,3-b]pyridin-1-yl)methyl phosphate]
- Human T1/2 [1]: ∞
- Rat T1/2 [2]: ∞
- TGI % (on the last day of dosing) ([5]; 6 mg/kg/qd): 41%
- TGI % (on the last day of dosing) ([5]; 20 mg/kg/bid): 95%
- TGI % (on the last day of dosing) ([5]; 20 mg/kg/qd): 59%
- TGI % (on the last day of dosing) ([5]; 60 mg/kg/qd): 108%

SMILES: CCCS(=O)(=O)Nc1ccc(F)c(C(=O)c2cn(COC(=O)C(C)(C)C)c3ncc(-c4ccc(Cl)cc4)cc23)c1F [Ex. 7a, (5-(4-chlorophenyl)-3-(2,6-difluoro-3-(propylsulfonamido)benzoyl)-1H-pyrrolo[2,3-b]pyridin-1-yl)methyl pivalate]
- Human T1/2 [1]: ∞
- half-life at 2 μM [3]: 68.8 min
- CLint scaled at 1 μM [2]: 46.8 mL/min/kg
- half-life at 1 μM [2]: 53.1 min
- Human T1/2 ([4]; 2 μM): ∞
